In US20060069132A1, “Azolecarboxamide herbicides” (priority 2004, published 2006):
Like-named read-outs stand apart in the source and are kept apart here.

Legend:
wheat = experiment: Test B postemergence herbicide test; assay type: in vivo, Triticum aestivum; conditions: Triticum aestivum, post-emergence, 336 h, postemergence, visual rating, scale 0 (no effect) to 100 (complete control), read-out: Wheat plant response rating
Procedure, shortened: (§1)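 After treating 2-leaf paddy plants or 2–18 cm postemergence plants (1 to 4 leaves) with formulated chemical, researchers kept them in a greenhouse for 13–15 days. Effects were judged visually versus controls: 0 indicates none, 100 total control.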

blackgrass = experiment: Test B postemergence herbicide test; assay type: in vivo, Alopecurus myosuroides; conditions: Alopecurus myosuroides, post-emergence, 336 h, postemergence, visual rating, scale 0 (no effect) to 100 (complete control), read-out: Blackgrass plant response rating
Procedure, shortened: (§2)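 Visual control ratings, 0–100 versus untreated controls, taken after 13 to 15 days in the greenhouse. Blackgrass received a postemergence spray at the 1- to 4-leaf stage (2–18 cm); ducksalad, umbrella sedge and barnyardgrass were flooded-paddy treated at 2 leaves.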

pigweed = experiment: Test B pre-/postemergence herbicide test; assay type: in vivo, Amaranthus retroflexus; conditions: Amaranthus retroflexus, 336 h; for pest or weed control at 125 g/ha: 125 g ai/ha; for pest or weed control at 500 g/ha: 500 g ai/ha
Procedure, shortened: (§3)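 Plants compared with untreated controls 13–15 days post-treatment and given a visual 0–100 injury score. Applications: preemergence to seeds; postemergence at 1- to 4-leaf (2–18 cm); paddy species flooded, 2-leaf stage. Vehicle non-phytotoxic, surfactant included.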

lambsquarters = experiment: Test B pre-/postemergence herbicide test; assay type: in vivo, Chenopodium album; conditions: Chenopodium album, 336 h; for pest or weed control at 125 g/ha: 125 g ai/ha; for pest or weed control at 500 g/ha: 500 g ai/ha
Procedure, shortened: as §3

morningglory = experiment: Test B pre-/postemergence herbicide test; assay type: in vivo, Ipomoea coccinea; conditions: Ipomoea, 336 h; for pest or weed control at 125 g/ha: 125 g ai/ha; for pest or weed control at 500 g/ha: 500 g ai/ha
Procedure, shortened: (§4)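 Response was scored visually 13 to 15 days after treatment against untreated greenhouse controls, 0 meaning no effect and 100 complete control. Formulations (solvent mixture plus surfactant) went onto soil after planting, onto foliage of 1- to 4-leaf plants, and onto 2-leaf plants in a flooded paddy set including rice and barnyardgrass.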

velvetleaf = experiment: Test B pre-/postemergence herbicide test; assay type: in vivo, Abutilon theophrasti; conditions: Abutilon theophrasti, 336 h; for pest or weed control at 125 g/ha: 125 g ai/ha; for pest or weed control at 500 g/ha: 500 g ai/ha
Procedure, shortened: as §3

corn = experiment: Test B pre-/postemergence herbicide test; assay type: in vivo, Zea mays; conditions: Zea mays; for plant injury at 125 g/ha: 125 g ai/ha
Procedure, shortened: as §3

cocklebur = experiment: Test B pre-/postemergence herbicide test; assay type: in vivo, Xanthium strumarium; conditions: Xanthium strumarium; for pest or weed control at 125 g/ha: 125 g ai/ha; for pest or weed control at 500 g/ha: 500 g ai/ha
Procedure, shortened: as §4

wild oat = experiment: Test B postemergence herbicide test; assay type: in vivo, Avena fatua; conditions: Avena fatua, post-emergence, 336 h, postemergence, visual rating, scale 0 (no effect) to 100 (complete control), read-out: Oat, Wild plant response rating
Procedure, shortened: as §1

barnyardgrass = experiment: Test B pre-/postemergence herbicide test; assay type: in vivo, Echinochloa crus-galli; conditions: Echinochloa crus-galli; for pest or weed control at 125 g/ha: 125 g ai/ha; for pest or weed control at 500 g/ha: 500 g ai/ha
Procedure, shortened: as §4

Surinam grass = experiment: Test B pre-/postemergence herbicide test; assay type: in vivo, Urochloa decumbens; conditions: Urochloa decumbens; for pest or weed control at 125 g/ha: 125 g ai/ha; for pest or weed control at 500 g/ha: 500 g ai/ha
Procedure, shortened: as §3

giant foxtail = experiment: Test B pre-/postemergence herbicide test; assay type: in vivo, Setaria faberi; conditions: Setaria faberi, 336 h; for pest or weed control at 125 g/ha: 125 g ai/ha; for pest or weed control at 500 g/ha: 500 g ai/ha
Procedure, shortened: as §3

[1] = tested on: small flower umbrella sedge; experiment: Test B flooded paddy test; assay type: in vivo, Cyperus difformis; conditions: Cyperus difformis, 336 h, 1000 g ai/ha, visual rating, scale 0 to 100 (0 no effect, 100 complete control), 13 to 15 days, read-out: Sedge, Umbrella plant response rating
Procedure, shortened: as §2

large crabgrass = experiment: Test B pre-/postemergence herbicide test; assay type: in vivo, Digitaria sanguinalis; conditions: Digitaria sanguinalis; for pest or weed control at 125 g/ha: 125 g ai/ha; for pest or weed control at 500 g/ha: 500 g ai/ha
Procedure, shortened: as §3

[2] = post-emergence, postemergence, visual rating, scale 0 (no effect) to 100 (complete control), read-out: Pigweed plant response rating
[3] = post-emergence, postemergence, visual rating, scale 0 (no effect) to 100 (complete control), read-out: Lambsquarters plant response rating
[4] = post-emergence, postemergence, visual rating, scale 0 (no effect) to 100 (complete control), read-out: Morningglory plant response rating
[5] = post-emergence, postemergence, visual rating, scale 0 (no effect) to 100 (complete control), read-out: Velvetleaf plant response rating
[6] = post-emergence, postemergence, visual rating, scale 0 (no effect) to 100 (complete control), read-out: Cocklebur plant response rating
[7] = post-emergence, postemergence, visual rating, scale 0 (no effect) to 100 (complete control), read-out: Barnyardgrass plant response rating
[8] = post-emergence, postemergence, visual rating, scale 0 (no effect) to 100 (complete control), read-out: Surinam Grass plant response rating
[9] = post-emergence, postemergence, visual rating, scale 0 (no effect) to 100 (complete control), read-out: Foxtail, Giant plant response rating
[10] = post-emergence, postemergence, visual rating, scale 0 (no effect) to 100 (complete control), read-out: Crabgrass, Large plant response rating

`CCNC(=O)c1cccc(NC(=O)c2nn(C(C)(C)C)cc2Br)c1` [Compound 221, 4-bromo-1-(1,1-dimethylethyl)-N-[3-[(ethylamino)carbonyl]phenyl]-1H-pyrazole-3-carboxamide] gave a plant injury at 125 g/ha (wheat; 125 g ai/ha) of 0%, a plant injury at 500 g/ha (wheat; 500 g ai/ha) of 10% and a pest or weed control at 125 g/ha (blackgrass; 125 g ai/ha) of 0%. For the same compound, the pest or weed control at 500 g/ha (blackgrass; 500 g ai/ha) was 0%, the pest or weed control at 125 g/ha (pigweed; [2]) was 10% and the pest or weed control at 500 g/ha (pigweed; [2]) was 20%. For the same compound, the pest or weed control at 125 g/ha (pigweed; pre-emergence, 0 = no effect, 100 = complete control, read-out: Pigweed plant response rating (0 to 100 scale)) was 50%, the pest or weed control at 500 g/ha (pigweed; pre-emergence, visual rating, 0 = no effect, 100 = complete control, read-out: Plant response rating, Pigweed) was 100% and the pest or weed control at 125 g/ha (lambsquarters; [3]) was 0%. It also gave a pest or weed control at 500 g/ha (lambsquarters; [3]) of 20%, a pest or weed control at 125 g/ha (lambsquarters; pre-emergence, 0 = no effect, 100 = complete control, read-out: Lambsquarters plant response rating (0 to 100 scale)) of 20% and a pest or weed control at 500 g/ha (lambsquarters; pre-emergence, visual rating, 0 = no effect, 100 = complete control, read-out: Plant response rating, Lambsquarters) of 100%. It also gave a pest or weed control at 125 g/ha (morningglory; [4]) of 0%, a pest or weed control at 500 g/ha (morningglory; [4]) of 0% and a pest or weed control at 125 g/ha (morningglory; pre-emergence, 0 = no effect, 100 = complete control, read-out: Morningglory plant response rating (0 to 100 scale)) of 0%. For the same compound, the pest or weed control at 500 g/ha (morningglory; pre-emergence, visual rating, 0 = no effect, 100 = complete control, read-out: Plant response rating, Morningglory) was 0%, the pest or weed control at 125 g/ha (velvetleaf; [5]) was 0% and the pest or weed control at 500 g/ha (velvetleaf; [5]) was 0%. The pest or weed control at 125 g/ha (velvetleaf; pre-emergence, 0 = no effect, 100 = complete control, read-out: Velvetleaf plant response rating (0 to 100 scale)) was 0%, the pest or weed control at 500 g/ha (velvetleaf; pre-emergence, visual rating, 0 = no effect, 100 = complete control, read-out: Plant response rating, Velvetleaf) was 50% and the plant injury at 125 g/ha (corn; post-emergence, postemergence, visual rating, scale 0 (no effect) to 100 (complete control), read-out: Corn plant response rating) was 10%. The plant injury at 500 g/ha (corn; post-emergence, postemergence, 500 g ai/ha, visual rating, scale 0 (no effect) to 100 (complete control), read-out: Corn plant response rating) was 10%, the plant injury at 125 g/ha (corn; pre-emergence, 0 = no effect, 100 = complete control, read-out: Corn plant response rating (0 to 100 scale)) was 0% and the Corn plant response rating (crop injury, 0 = no effect, 100 = complete kill) at 500 g/ha (corn; pre-emergence, 500 g ai/ha, visual rating, 0 = no effect, 100 = complete control) was 0%. For the same compound, the pest or weed control at 125 g/ha (cocklebur; [6]) was 0%, the pest or weed control at 500 g/ha (cocklebur; [6]) was 20% and the pest or weed control at 125 g/ha (cocklebur; pre-emergence, 0 = no effect, 100 = complete control, read-out: Cocklebur plant response rating (0 to 100 scale)) was 0%. For the same compound, the pest or weed control at 500 g/ha (cocklebur; pre-emergence, visual rating, 0 = no effect, 100 = complete control, read-out: Plant response rating, Cocklebur) was 0%, the pest or weed control at 125 g/ha (wild oat; 125 g ai/ha) was 0% and the pest or weed control at 500 g/ha (wild oat; 500 g ai/ha) was 10%. For the same compound, the pest or weed control at 125 g/ha (barnyardgrass; [7]) was 0%, the pest or weed control at 500 g/ha (barnyardgrass; [7]) was 10% and the pest or weed control at 125 g/ha (barnyardgrass; pre-emergence, 0 = no effect, 100 = complete control, read-out: Barnyardgrass plant response rating (0 to 100 scale)) was 0%. It also gave a pest or weed control at 500 g/ha (barnyardgrass; pre-emergence, visual rating, 0 = no effect, 100 = complete control, read-out: Plant response rating, Barnyardgrass) of 90%, a pest or weed control at 125 g/ha (Surinam grass; [8]) of 0% and a pest or weed control at 500 g/ha (Surinam grass; [8]) of 10%. For the same compound, the pest or weed control at 125 g/ha (Surinam grass; pre-emergence, 0 = no effect, 100 = complete control, read-out: Surinam Grass plant response rating (0 to 100 scale)) was 0%, the pest or weed control at 500 g/ha (Surinam grass; pre-emergence, visual rating, 0 = no effect, 100 = complete control, read-out: Plant response rating, Surinam Grass) was 30% and the pest or weed control at 125 g/ha (giant foxtail; [9]) was 10%. It also gave a pest or weed control at 500 g/ha (giant foxtail; [9]) of 10%, a pest or weed control at 125 g/ha (giant foxtail; pre-emergence, 0 = no effect, 100 = complete control, read-out: Foxtail, Giant plant response rating (0 to 100 scale)) of 0% and a pest or weed control at 500 g/ha (giant foxtail; pre-emergence, visual rating, 0 = no effect, 100 = complete control, read-out: Plant response rating, Foxtail, Giant) of 70%. For the same compound, the pest or weed control at 1000 g/ha [1] was 80%, the pest or weed control at 125 g/ha (large crabgrass; [10]) was 0% and the pest or weed control at 500 g/ha (large crabgrass; [10]) was 10%. It also gave a pest or weed control at 125 g/ha (large crabgrass; pre-emergence, 0 = no effect, 100 = complete control, read-out: Crabgrass, Large plant response rating (0 to 100 scale)) of 80% and a pest or weed control at 500 g/ha (large crabgrass; pre-emergence, visual rating, 0 = no effect, 100 = complete control, read-out: Plant response rating, Crabgrass, Large) of 100%.
